Columns and labels:
[1] = Nonconditioned passive avoidance (conflict) test in rats; type: in vivo, rat (Wistar strain); conditions: 25 mg/kg oral or i.p., 30 to 60 min, active if number of shocks received is significantly higher than control group by Mann-Witney U test
Description: Another test which has been used to assess antianxiety effects is a nonconditioned passive avoidance procedure described by [J. R. Vogel, B. Beer and D. E. Clody, "A Simple and Reliable Conflict Procedure for Testing Anti-Anxiety Agents", Psychopharmacologia, 21, 1-7(1971)]. A conflict situation is induced in rats by a modification of this method.
Groups of 6 naive, Wistar strain rats, weighing 200-240 g each were deprived of water for 48 hours and food for 24 hours. The test compounds were administered in single or graded, oral or intraperitoneal doses, suspended in a 2% starch vehicle containing 0.5% v/v polyethylene glycol and one drop of polysorbate 80. Control animals received the vehicle alone. At 30 to 60 minutes each rat was placed in an individual plexiglass chamber. Water was available ad libitum from a tap located in the rear of the chamber. A 0.7 milliampere DC shocking current was established between the stainless steel grid floor and the tap. After 20 licks of nonshocked drinking, a shock was delivered for 2 seconds and then further shocks were delivered on a ratio of one shock for 2 seconds for every 20 licks. This was continued for a total of 3 minutes. The number of shocks taken by each rat during the 3 minute interval was recorded and compared to a control group. […]

[2] = tested on: brain-specific receptors of rats (3H-benzodiazepine binding); assay: Inhibition of the binding of 3H-benzodiazepine to brain-specific receptors of rats; parameters: species or system rat (Wistar strain); conditions: rat cortex P2-fraction; 3H-diazepam 1.5 nM or 3H-flunitrazepam 1.0 nM; pH 7.4; 30 min in ice; test concentration not given
[3] = Protection against clonic seizures caused by pentylenetetrazole in rats; type: in vivo, rat; conditions: pentylenetetrazole 23 mg/kg i.v. at 30 or 60 min
Description: The anti-anxiety and anticonvulsant properties of the novel compounds of the present invention have been established in a test which indicates anxiolytic activity by the measure of protection from convulsions resulting from the administration of pentylenetetrazole. Single or graded dose levels of the test compounds were administered orally or intraperitoneally in a 2% starch vehicle, containing 0.5% v/v polyethylene glycol and one drop of Polysorbate 80 to groups of at least 4 rats. At 30 or 60 minutes, the rats were treated intravenously with pentylenetetrazole at a dose of 23 mg/kg of body weight. This dose is estimated to cause clonic seizures in 99% of unprotected rats. It has Been reported [R. T. Hill and D. H. Tedeschi, "Animal Testing and Screening Procedures in Evaluating Psychotropic Drugs" in "An Introduction to Psychopharmacology",Eds. R. R. Rech and K. E. Moore, Raven Press, N.Y., pp 237-288 (1971)]that there is a high degree of correlation between antagonism of pentylenetetrazole seizures in rats and anti-anxiety or anticonvulsant effects in higher warm-blooded animals.

[4] = Rattus norvegicus, 25 mg/kg oral or i.p., read-out: % of Rats Protected

| Compound | Nonconditional Passive Avoidance Test result [1] | % Inhibition (result in words) [2] | responders at 25 mg/kg [3, 4] [%] | % Inhibition [2] [%] | responders at 3.1 mg/kg ([3]; Rattus norvegicus, 3.1 mg/kg oral or i.p., read-out: % of Rats Protected) [%] | % of Rats Protected (result in words) ([3]; 25 mg/kg oral or i.p.) | % of Rats Protected (result in words) ([3]; 6.25 mg/kg oral or i.p.) |
| --- | --- | --- | --- | --- | --- | --- | --- |
| CCOC(=O)c1cnn2c(-c3cccc(-n4ccnc4C)c3)ccnc12 [Example 21, ethyl 7-[3-(2-methyl-1H-imidazol-1-yl)phenyl]pyrazolo[1,5-a]pyrimidine-3-carboxylate] | inactive | inactive | 0 | – | – | – | – |
| c1cc(-c2ccnc3ccnn23)cc(-n2ccnc2)c1 [Example 6, 7-[3-(1H-imidazol-1-yl)-phenyl]pyrazolo[1,5-a]pyrimidine] | inactive | – | 0 | 72 | – | – | – |
| Cc1nccn1-c1cccc(-c2ccnc3c(C(=O)c4ccccc4)cnn23)c1 [Example 1, [7-[3-(2-Methyl-1H-imidazol-1-yl)phenyl]pyrazolo[1,5-a]pyrimidin-3-yl]phenylmethanone compound with dichloromethane (20:1;)] | active | – | 100 | 98 | – | – | – |
| O=C(c1ccccc1)c1cnn2c(-c3cccc(-n4ccnc4)c3)ccnc12 [Example 4, [7-[3-(1H-imidazol-1-yl)phenyl]pyrazolo[1,5-a]pyrimidin-3-yl]phenylmethanone] | inactive | – | 100 | 94 | – | – | – |
| Cc1cn(-c2cccc(-c3ccnc4c(C#N)cnn34)c2)cn1 [Example 20, 7-[3-(4-methyl-1H-imidazol-1-yl)-phenyl]pyrazolo[1,5-a]pyrimidine-3-carbonitrile] | inactive | – | 0 | – | – | – | – |
| Cc1nccn1-c1cccc(-c2ccnc3c(Cl)cnn23)c1 [Example 12, 3-chloro-7-[3-(2-methyl-1H-imidazol-1-yl)phenyl]pyrazolo[1,5-a]pyrimidine compd. with dichloromethane (20:1)] | active | – | 100 | – | – | – | – |
| O=C(c1ccco1)c1cnn2c(-c3cccc(-n4ccnc4)c3)ccnc12 [Example 5, 2-furanyl[7-[3-(1H-imidazol-1-yl)-phenyl]-pyrazolo[1,5-a]pyrimidin-3-yl]methanone] | active | – | 100 | 72 | – | – | – |
| Cc1nccn1-c1cccc(-c2ccnc3c(C#N)c(N)nn23)c1.Cl [Example 19, 2-amino-7-[3-(2-methyl-1H-imidazol-1-yl)phenyl]pyrazolo-[1,5-a]pyrimidine-3-carbonitrile monohydrochloride] | active | – | – | – | 50 | – | – |
| O=C(c1cccs1)c1cnn2c(-c3cccc(-n4ccnc4)c3)ccnc12 [Example 11, [7-[3-(1H-imidazol-1-yl)phenyl]pyrazolo[1,5-a]pyrimidin-3-yl]-2-thienyl-methanone] | inactive | – | 50 | 100 | – | – | – |
| Cc1nccn1-c1cccc(-c2ccnc3ccnn23)c1 [Example 13, 7-[3-(2-methyl-1H-imidazol-1-yl)-phenyl]pyrazolo[1,5-a]pyrimidine] | active | – | 50 | – | – | – | – |
| O=C(c1ccncc1)c1cnn2c(-c3cccc(-n4ccnc4)c3)ccnc12 [Example 17, [7-[3-(1H-imidazol-1-yl)-phenyl]pyrazolo[1,5-a]pyrimidin-3-yl]-4-pyridinylmethanone] | active | – | – | 90 | – | inactive | – |
| Cc1nccn1-c1cccc(-c2ccnc3c(C#N)cnn23)c1 [Example 2, 7-[3-(2-methyl-1H-imidazol-1-yl)-phenyl]pyrazolo[1,5-a]pyrimidine-3-carbonitrile compd. with dichloromethane 20:1] | inactive | – | 75 | 88 | – | – | – |
| Cc1nccn1-c1cccc(-c2ccnc3c(C(=O)c4ccco4)cnn23)c1 [Example 7, 2-furanyl[7-[3-(2-methyl-1H-imidazol-1-yl)phenyl]pyrazolo[1,5-a]pyrimidin-3-yl]methanone compd. with dichloromethane (100:3)] | active | – | 25 | 101 | – | – | – |
| Cc1nccn1-c1cccc(-c2ccnc3c(C(=O)c4cccs4)cnn23)c1 [Example 10, [7-[3-(2-methyl-1H-imidazol-1-yl)-phenyl]pyrazolo[1,5-a]pyrimidin-3-yl]-2-thienyl-methanone] | active | – | 100 | 99 | – | – | – |
| CCc1nccn1-c1cccc(-c2ccnc3c(C(=O)c4ccccc4)cnn23)c1 [Example 15, [7-[3-(2-ethyl-1H-imidazol-1-yl)-phenyl]pyrazolo[1,5-a]pyrimidin-3-yl]-phenylmethanone] | active | – | – | 98 | – | – | active |
| Cc1cn(-c2cccc(-c3ccnc4c(C(=O)c5ccccc5)cnn34)c2)cn1 [Example 14, [7-[3-(4-methyl-1H-imidazol-1-yl)-phenyl]pyrazolo[1,5-a]pyrimidin-3-yl]-phenylmethanone compd. with dichloromethane (20:1)] | active | – | 100 | 93 | – | – | – |
| N#Cc1cnn2c(-c3cccc(-n4ccnc4)c3)ccnc12 [Example 3, 7-[3-(1H-imidazol-1-yl)phenyl]-pyrazolo[1,5-a]pyrimidine-3-carbonitrile] | active | – | 100 | 44 | – | – | – |
| Cc1cn(-c2cccc(-c3ccnc4c(C(=O)c5cccs5)cnn34)c2)cn1 [Example 8, [7-[3-(4-methyl-1H-imidazol-1-yl)-phenyl]pyrazolo[1,5-a]pyrimidin-3-yl]-2-thienyl-methanone] | active | – | 75 | 75 | – | – | – |
| Cc1cn(-c2cccc(-c3ccnc4c(C(=O)c5ccco5)cnn34)c2)cn1 [Example 9, 2-furanyl[7-[3-(4-methyl-1H-imidazol-1-yl)phenyl]pyrazolo[1,5-a]pyrimidin-3-yl]methanone compd. with dichloromethane (20:1)] | active | – | 50 | 98 | – | – | – |

Source: patent US5538977A, “3-Substituted-7-[3-(imidazol-1-yl)phenyl]-pyrazolo[1,5-a]pyrimidines” (American Cyanamid Company, priority 1995, dated 1996)
